Results published in patent US20030153549A1, “Clavams as protease inhibitors” (priority 2000, published 2003).

Experiments:
[1] = target: porcine pancreatic elastase PPE (Sus scrofa, UniProt P00772); assay: Enzyme assay: hydrolysis of Suc-AlaAlaProAla-pNa by PPE, measured at 405 nm; assay type: biochemical; conditions: for IC50: substrate 100 μM, 25° C., pH 7.5, 10% DMSO; for inhibitory potency with pre-incubation of the clavam with PPE: with pre-incubation versus without
Description: Enzyme assays. Enzyme assays were performed using a Shimadzu 1601PC spectrophotometer equipped with a thermostatted multi-cell transport system. The hydrolysis of the para-nitroanilide substrate (Suc-AlaAlaProAla-pNa, 100 μM) was measured at 405 nm and at a constant temperature of 25° C. in 0.1 M Tris-HCl buffer (pH 7.5). At least quadruplicate measurements of the initial rate were determined at five inhibitor concentrations and data analysed using standard kinetic equations programmed into Excel (Microsoft Corp.) and Grafit (Erithacus Inc.). To aid solubility the clavam inhibitors were dissolved in DMSO to give a final concentration in the assay of 10% (v/v).
It is likely that the lack of inhibition observed from clavulanic acid (1) is due to the presence of a negative charge on the carboxylic acid on C-3 which prevents binding within the PPE active site.

[2] = target: T1, PPE (Sus scrofa, UniProt P00772); assay: Electrospray ionisation mass spectrometry of PPE incubated with one equivalent of inhibitor (adduct formation); assay type: binding, porcine; conditions: time points 3 minutes to 5 hours, unbuffered
T1 sequence (P00772 27-266): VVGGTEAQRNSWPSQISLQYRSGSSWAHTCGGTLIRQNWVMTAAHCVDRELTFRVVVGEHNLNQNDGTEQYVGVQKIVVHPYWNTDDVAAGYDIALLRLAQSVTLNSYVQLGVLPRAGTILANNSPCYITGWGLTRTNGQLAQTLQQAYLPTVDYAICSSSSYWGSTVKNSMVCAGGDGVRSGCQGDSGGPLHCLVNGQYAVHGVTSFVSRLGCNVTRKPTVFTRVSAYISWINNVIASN
Description: Electrospray ionisation mass spectrometry. Electrospray ionisation mass spectra were recorded on a Micromass BioQ II-ZS triple quadruple mass spectrometer equipped with an electrospray interface. PPE at 80 pmol μl^−1 was incubated with one equivalent of inhibitor. Samples (5 μl) were removed at fixed time points, diluted with water:acetonitrile (1:1 v/v) containing 0.2% (v/v) formic acid to give a protein concentration of 5 pmol μl^−1 and analysed immediately. The resulting electrospray mass spectra were calibrated relative to native porcine pancreatic elastase PPE and processed using the MaxEnt algorithm and the spectra reported as centroided data.

[3] = target: T1, PPE; assay: 1H NMR analysis of incubation of PPE with clavulanic acid derivative (ester hydrolysis); assay type: biochemical, porcine; conditions: D2O/CD3CN, 303K
Description: NMR experimental procedures. ^1H NMR analyses were performed at 500 MHz on a Bruker AMX500 instrument. Samples (450-500 μl) of PPE (ca. 3 mg) and clavulanic acid derivative (ca 3 mg) were dissolved in 10% (v/v) CD3CN in D2O. The temperature was regulated at 303K and the spectra were referenced to internal MeCN at 2.05 ppm.
Their identity was subsequently confirmed by doping experiments.

Sequence of porcine pancreatic elastase PPE (P00772 27-266): as above

Row | SMILES | inhibition of PPE ([1]; standard assay conditions) | mass increments / adducts relative to native PPE (ESIMS) [2] | inhibition ([1]; pre-incubation of clavam with PPE 15 minutes) [%] | inhibition ([1]; pre-incubation of clavam with PPE 30 minutes) [%] | inhibition ([1]; pre-incubation of clavam with PPE 60 minutes) [%] | IC50 ([1]; standard assay conditions) [µM] | inhibitory potency with pre-incubation of the clavam with PPE [1] | PPE-catalysed hydrolysis of the ester side chain (1H NMR) [3]
1 | O=C(O)[C@H]1/C(=C/CO)O[C@@H]2CC(=O)N21 [compound 1, Clavulanic acid, reference compound] | did not inhibit PPE | no mass increments | – | – | – | – | – | –
2 | O=C(OCc1ccccc1)[C@H]1/C(=C/CO)O[C@@H]2CC(=O)N21 [compound 9] | – | formation of an initial acyl-enzyme complex | 43 | 87 | 93 | 184 | increased significantly | just visible after a one hour incubation period
3 | O=C(OCc1ccc([N+](=O)[O-])cc1)[C@H]1/C(=C/CO)O[C@@H]2CC(=O)N21 [compound 10] | – | formation of the 70 and 88 Da adducts appeared to be slightly faster | – | – | – | 187 | increased significantly | –
